Test results published in US20260027073A1, “USE OF SMALL-MOLECULE COMPOUND HAVING NAPHTHYLAMINE STRUCTURE” (HANGZHOU PHECDAMED CO., LTD., priority 2023, published 2026).
Several values for one entry are separate records, joined by “and”; a condition that tells them apart may be missing. Equal entries are not always repeated.

Experiments:
[1] = system: chronic epilepsy mouse model; assay: PTZ chronic epilepsy model; assay type: in vivo, ICR mice; settings: for seizure grade (Racine grading) / latency in platform jumping (Step-down) experiment / Step-through latency, dark avoidance experiment: 30 mg/kg oral gavage, 21 days; for seizure grade (Racine grading): FIG. 63; for latency in platform jumping (Step-down) experiment: FIG. 64; for Step-through latency, dark avoidance experiment: FIG. 65; for serum IL-1β level / serum TNF-α level: 30 mg/kg, to a certain degree, FIG. 66
Method: Clean grade 8-10 week old male ICR mice were selected for the preparation of a chronic epilepsy mouse model. They were randomly divided into four groups: normal control group (Control, 0.5% CMC-Na treatment by oral gavage, n=8), model group (Model, 0.5% CMC-Na treatment by oral gavage, n=8), TJ01-013 treatment group (TJ01-013, 30 mg/kg TJ01-013 by oral gavage, n=8), I-14-1 treatment group (I-14-1, 30 mg/kg I-14-1 by oral gavage, n=8). Starting from the first day of the experiment, at 10-11 am every day, mice in all groups except the normal control group were injected intraperitoneally with PTZ 40 mg/kg and the normal control group was injected with the corresponding volume of saline for a total of 21 days. The drug administration treatment was started right after the start of modeling, and the drug was administered once a day for a total of 21 days, and the corresponding tests were performed at the end of the drug administration.
Epileptic seizure grading standard is based on Racine grading: Grade 0, no convulsive response, manifested as normal behavior state; Grade I, facial muscle spasm, manifested as rhythmic chewing, blinking, moving whiskers, etc.; Grade II, neck muscle spasm, manifested as head nodding with or without tail erecting; Grade III, forelimb lifting, clonic or rhythmic twitching; Grade IV, hindlimb tonic or standing tonic; Grade V, generalized clonic, standing tonic and falling down; loss of balance.
The platform jumping experiment is an experimental method designed to utilize the habit of experimental mice to jump down from a high place immediately to explore the surrounding environment. The experimental mice are placed on a high platform, and at the moment of jumping down, they are given electrical stimulation. Then in order to avoid the electric stimulus, the animals will not jump off the platform, while the mice that are not good at learning and memorizing will maintain their habit and jump off the platform. At the end of each round of the experiment, 75% alcohol were sprayed for wiping to avoid odor interference between the mice. The experiment was conducted after the administration, and the experimental device was a cubic box with a (10 cm×10 cm) electric fence at the bottom and a height of 30 cm, with a platform of 3.2 cm in height and 4.2 cm in diameter inside. The experimental steps and procedures of this experiment were divided into: (1) The mice were put into the bottom of the experimental device, which was not energized at this time, so that they were free to explore and adapt to the environment for 10 s. (2) The mice were placed on the high platform inside the experimental device, and the time at which the mice jumped off the high platform was recorded as Initial latency, and were given electrical stimulation (50 Hz, 20 V, 5 s). (3) After 24 h, the mice were placed on the platform again, and the time at which they jumped off the platform was recorded as Step-down latency. The residence time of the mice on the high platform should not exceed 60 s, and the time exceeding 60 s was still recorded as 60 s.
The step through dark avoidance experiment is an experimental method designed to utilize the tendency of mice to move around in dark environments more than in bright environments. The experimental mice are placed in a bright environment of a bright and dark environment connecting device, and then electrically stimulated when they enter the dark environment. Then in order to avoid the electric stimulus, they will move into the light environment, while mice that are not good at learning and memorizing will maintain their habit and enter the dark environment. At the end of each round of the experiment, 75% alcohol were sprayed for wiping to avoid odor interference between mice. This experiment was conducted at the end of the administration. […]

[2] = system: rats of type I diabetes nephropathy model; assay: Kidney injury induced by type 1 diabetic nephropathy (STZ); assay type: in vivo, SD rats
Method: 150-170 g SD male rats were fasted but not deprived of water for 12 h before surgery, and a longitudinal incision was made at the intersection of the lower edge of the right rib arch, which was about 1 cm long. Then the three layers of skin, mucous membrane, and muscle were separated layer by layer to expose the perinephric fat, and the perinephric fat was clamped by hemostatic forceps and lifted upward to expose the right kidney, and the right kidney pedicle was ligated and the right kidney was resected, and after no hemorrhage was checked, the tissues were sutured layer by layer. One week after surgery, 1% streptozotocin (STZ) 50 mg/kg was injected intraperitoneally in a volume of […]. Rats in the sham group only had the abdominal cavity opened, the right renal adipose capsule was peeled off, and the right kidney was not resected; the abdominal cavity was closed, the incision was sutured and an equal volume of citrate solution was injected into the tail vein one week later.
Random blood glucose was measured 72 h after STZ injection, and blood glucose ≥16.65 mmol/L was considered as successful diabetes modeling. The successful modeling rats were selected to continue to be fed with normal chow and free water. […] The experiment was divided into sham group (sham group, without STZ modeling and given vehicle by oral gavage), Control group (model control group, STZ modeling and given vehicle treatment by oral gavage), and 15 mg/kg I-1 group (STZ modeling and given 15 mg/kg I-1 by oral gavage), and the dosage of the drug was administered once a day in the volume of 10 ml/kg for 27 days. […] At the end point of the experiment, the rats were euthanized, the kidneys were removed after dissection, and four kidneys were taken to be fixed with 4% paraformaldehyde for 48 h, paraffin-embedded, sectioned and HE stained, and the specific staining procedure was as described above.

## O=C(O)C[S+]([O-])c1cc(NS(=O)(=O)c2ccc(Br)cc2)c2ccccc2c1O (stereo not shown) [I-1]
[1]
  seizure grade (Racine grading): significant difference in reducing seizures
  latency in platform jumping (Step-down) experiment: increase the Initial latency to a certain degree
  Step-through latency, dark avoidance experiment: increase the latency to a certain extent
  serum IL-1β level: reduce
  serum TNF-α level: reduce
[1]; both 30 mg/kg, per readout of the block
  treatment effect of TJ01-013 compared with I-14-1: significantly better
[2]; 15 mg/kg oral gavage, 27 days, FIG. 14
  body weight: trend of increasing body weight
[2]; 15 mg/kg, 27 days, FIG. 16
  blood glucose level: no significant effect
[2]; 15 mg/kg, 27 days, FIG. 17
  24-h urine protein level: decrease in the 24-h urine protein level of rats, but there was no significant difference
[2]; 15 mg/kg, 27 days, P<0.5 [sic], FIG. 15
  serum creatinine level: significantly decreased
[2]; 15 mg/kg, 27 days, vs model group, FIG. 18
  degree of renal pathology (HE staining): significant reduction
[2]; Degree of lesion + (mild lesions), 15 mg/kg
  Renal lesion (number of kidneys, n = 4): 3/4 and 3
[2]; Degree of lesion ++ (moderate lesions), 15 mg/kg
  Renal lesion (number of kidneys, n = 4): 0
[2]; Degree of lesion +++ (severe lesions), 15 mg/kg
  Renal lesion (number of kidneys, n = 4): 1/4 and 1
[2]; Degree of lesion ± (slight lesions), 15 mg/kg
  Renal lesion (number of kidneys, n = 4): 0
[2]; Degree of lesion − (no lesions), 15 mg/kg
  Renal lesion (number of kidneys, n = 4): 0

## O=C(O)C[S+]([O-])c1cc(NS(=O)(=O)c2ccc(C(F)(F)F)cc2)c2ccccc2c1O (stereo not shown) [I-14-1]
[1]
  seizure grade (Racine grading): reduce the seizure grade
  latency in platform jumping (Step-down) experiment: increase the Initial latency to a certain degree
  Step-through latency, dark avoidance experiment: increase the latency to a certain extent
  serum IL-1β level: reduce
  serum TNF-α level: reduce

## O=C(O)CSc1cc(NS(=O)(=O)c2ccc(Br)cc2)c2ccccc2c1O [UMI-77, reference compound]
[2]; UMI-77 vs I-1
  protection against kidney injury in type 1 diabetes compared with I-1 group: less protective
